# Measured values: ChEMBL document CHEMBL5696442, “Discovery of type II inhibitors of TGFβ-activated kinase 1 (TAK1) and mitogen-activated protein kinase kinase kinase kinase 2 (MAP4K2)” (J Med Chem, 2015)
# The source made the active and inactive calls. No cut-off for these calls is given here.
# Tests used:
# 293-IL-1R = assay: Inhibition of IL-1alpha induced p105 phosphorylation level in human 293-IL-1R cells preincubated for 1 hr followed by IL-1 alpha stimulation and measured after 30 mins by Western blot analysis; format: functional, cell-based; settings: dose 0.01-10 µM
# [1] = target: Activin receptor type-1 (Homo sapiens) (UniProt Q04771); assay: Inhibition of ACVR1 (unknown origin) at 10 uM by Ambit Kinomescan binding assay
# [2] = target: Casein kinase I isoform epsilon (Homo sapiens) (UniProt P49674); assay: Inhibition of CSNK1E (unknown origin) at 10 uM by Ambit Kinomescan binding assay
# [3] = system: Epidermal growth factor receptor (Homo sapiens), P00533 [UNDEFINED MUTATION]; assay: Inhibition of EGFR S752-I759del mutant (unknown origin) at 10 uM by Ambit Kinomescan binding assay relative to control
# [4] = target: Phosphatidylinositol 4,5-bisphosphate 3-kinase catalytic subunit beta isoform (Homo sapiens) (UniProt P42338); assay: Inhibition of PIK3CB (unknown origin) at 10 uM by Ambit Kinomescan binding assay
# [5] = target: Microtubule-associated serine/threonine-protein kinase 1 (Homo sapiens) (UniProt Q9Y2H9); assay: Inhibition of MAST1 Lys2 labeling site in human A-375 cells at 5 uM by KiNativ Profiling analysis relative to control
# [6] = target: Mitogen-activated protein kinase kinase kinase kinase 4 (Homo sapiens, UniProt O95819); assay: Inhibition of ZC1/HGK Lys1 labeling site in human Huh-7 cell lysate at 1 uM by KiNativ Profiling analysis relative to control; format: subcellular
# [7] = target: MAP/microtubule affinity-regulating kinase 3 (Homo sapiens) (UniProt P27448); assay: Inhibition of MARK3 Lys2 labeling site in human Huh-7 cell lysate at 1 uM by KiNativ Profiling analysis relative to control; format: subcellular
# [8] = target: T1, NUAK family SNF1-like kinase 1 (Homo sapiens) (UniProt O60285); assay: Inhibition of NuaK1 Lys2 labeling site in human Huh-7 cell lysate at 1 uM by KiNativ Profiling analysis relative to control; format: subcellular
# T1 sequence (whole entry): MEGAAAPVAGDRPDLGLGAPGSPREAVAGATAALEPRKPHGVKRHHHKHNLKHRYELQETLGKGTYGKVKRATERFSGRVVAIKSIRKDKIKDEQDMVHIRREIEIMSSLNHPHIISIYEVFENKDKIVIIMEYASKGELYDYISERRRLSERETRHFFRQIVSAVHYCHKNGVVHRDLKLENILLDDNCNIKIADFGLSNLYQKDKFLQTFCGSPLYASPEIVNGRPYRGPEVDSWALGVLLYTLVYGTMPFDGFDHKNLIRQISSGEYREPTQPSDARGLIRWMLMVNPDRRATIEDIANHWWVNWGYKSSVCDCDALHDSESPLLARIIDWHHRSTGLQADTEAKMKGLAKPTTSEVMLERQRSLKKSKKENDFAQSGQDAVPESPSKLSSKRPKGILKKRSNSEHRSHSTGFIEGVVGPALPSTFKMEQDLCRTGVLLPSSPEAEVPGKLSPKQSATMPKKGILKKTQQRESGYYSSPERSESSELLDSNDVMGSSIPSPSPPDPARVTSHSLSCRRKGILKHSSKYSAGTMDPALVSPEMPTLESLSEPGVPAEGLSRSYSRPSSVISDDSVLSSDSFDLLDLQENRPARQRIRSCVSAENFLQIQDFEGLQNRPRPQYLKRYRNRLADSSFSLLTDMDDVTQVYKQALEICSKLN
# [9] = system: Epidermal growth factor receptor (Homo sapiens), P00533 [UNDEFINED MUTATION]; assay: Inhibition of EGFR S752-I759del mutant (unknown origin) at 1 uM by Ambit Kinomescan binding assay relative to control
# [10] = target: T2, Mitogen-activated protein kinase 13 (Homo sapiens) (UniProt O15264); assay: Inhibition of p38 delta (unknown origin) at 1 uM by Ambit Kinomescan binding assay relative to control
# T2 sequence (whole entry): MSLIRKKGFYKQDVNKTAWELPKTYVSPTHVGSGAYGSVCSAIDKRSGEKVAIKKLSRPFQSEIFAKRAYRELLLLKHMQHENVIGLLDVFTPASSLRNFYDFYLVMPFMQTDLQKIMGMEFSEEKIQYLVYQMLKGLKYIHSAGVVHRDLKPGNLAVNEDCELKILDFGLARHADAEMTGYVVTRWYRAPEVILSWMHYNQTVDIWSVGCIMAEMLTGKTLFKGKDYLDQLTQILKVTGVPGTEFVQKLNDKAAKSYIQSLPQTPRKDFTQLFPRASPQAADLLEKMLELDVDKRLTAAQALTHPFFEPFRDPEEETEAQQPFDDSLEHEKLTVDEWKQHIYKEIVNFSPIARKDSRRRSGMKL
# [11] = target: 5'-AMP-activated protein kinase catalytic subunit alpha-2 (Homo sapiens) (UniProt P54646); assay: Inhibition of AMPKa2 Lys2 labeling site in human A-375 cells at 5 uM by KiNativ Profiling analysis relative to control; format: cell-based
# [12] = target: T3, Mixed lineage kinase domain-like protein (Homo sapiens) (UniProt Q8NB16); assay: Inhibition of MLKL Lys1 labeling site in human A-375 cells at 5 uM by KiNativ Profiling analysis relative to control; format: cell-based
# T3 sequence (whole entry): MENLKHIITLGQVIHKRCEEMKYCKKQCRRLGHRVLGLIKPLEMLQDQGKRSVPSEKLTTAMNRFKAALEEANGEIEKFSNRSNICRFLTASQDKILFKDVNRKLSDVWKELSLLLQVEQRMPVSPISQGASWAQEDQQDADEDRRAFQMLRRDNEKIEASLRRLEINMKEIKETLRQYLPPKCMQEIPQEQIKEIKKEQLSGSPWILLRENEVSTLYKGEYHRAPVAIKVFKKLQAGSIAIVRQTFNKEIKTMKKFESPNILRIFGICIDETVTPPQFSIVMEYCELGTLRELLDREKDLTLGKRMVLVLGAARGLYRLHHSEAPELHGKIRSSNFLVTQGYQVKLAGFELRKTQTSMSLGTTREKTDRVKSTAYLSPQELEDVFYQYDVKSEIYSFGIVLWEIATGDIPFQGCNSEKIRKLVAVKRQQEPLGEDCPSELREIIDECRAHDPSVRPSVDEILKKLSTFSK
# Ephrin type-A receptor 2 = Ephrin type-A receptor 2 (Homo sapiens, UniProt P29317); assay: Inhibition of EphA2 ACT labeling site in human A-375 cells at 0.05 uM by KiNativ Profiling analysis relative to control; format: cell-based
# [13] = target: T4, EKC/KEOPS complex subunit TP53RK (Homo sapiens) (UniProt Q96S44); assay: Inhibition of PRPK ATP Loop labeling site in human A-375 cells at 0.05 uM by KiNativ Profiling analysis relative to control; format: cell-based
# T4 sequence (whole entry): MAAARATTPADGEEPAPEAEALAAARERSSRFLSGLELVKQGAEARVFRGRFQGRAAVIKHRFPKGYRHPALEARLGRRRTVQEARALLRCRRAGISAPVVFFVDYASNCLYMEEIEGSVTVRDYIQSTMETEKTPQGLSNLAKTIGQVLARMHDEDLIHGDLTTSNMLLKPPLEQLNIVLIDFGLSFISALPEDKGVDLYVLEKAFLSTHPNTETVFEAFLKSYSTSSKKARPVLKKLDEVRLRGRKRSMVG
# Chain of Epidermal growth factor receptor (Homo sapiens), P00533 [UNDEFINED MUTATION] (P00533 whole entry, looked up, stated change not applied, canonical isoform): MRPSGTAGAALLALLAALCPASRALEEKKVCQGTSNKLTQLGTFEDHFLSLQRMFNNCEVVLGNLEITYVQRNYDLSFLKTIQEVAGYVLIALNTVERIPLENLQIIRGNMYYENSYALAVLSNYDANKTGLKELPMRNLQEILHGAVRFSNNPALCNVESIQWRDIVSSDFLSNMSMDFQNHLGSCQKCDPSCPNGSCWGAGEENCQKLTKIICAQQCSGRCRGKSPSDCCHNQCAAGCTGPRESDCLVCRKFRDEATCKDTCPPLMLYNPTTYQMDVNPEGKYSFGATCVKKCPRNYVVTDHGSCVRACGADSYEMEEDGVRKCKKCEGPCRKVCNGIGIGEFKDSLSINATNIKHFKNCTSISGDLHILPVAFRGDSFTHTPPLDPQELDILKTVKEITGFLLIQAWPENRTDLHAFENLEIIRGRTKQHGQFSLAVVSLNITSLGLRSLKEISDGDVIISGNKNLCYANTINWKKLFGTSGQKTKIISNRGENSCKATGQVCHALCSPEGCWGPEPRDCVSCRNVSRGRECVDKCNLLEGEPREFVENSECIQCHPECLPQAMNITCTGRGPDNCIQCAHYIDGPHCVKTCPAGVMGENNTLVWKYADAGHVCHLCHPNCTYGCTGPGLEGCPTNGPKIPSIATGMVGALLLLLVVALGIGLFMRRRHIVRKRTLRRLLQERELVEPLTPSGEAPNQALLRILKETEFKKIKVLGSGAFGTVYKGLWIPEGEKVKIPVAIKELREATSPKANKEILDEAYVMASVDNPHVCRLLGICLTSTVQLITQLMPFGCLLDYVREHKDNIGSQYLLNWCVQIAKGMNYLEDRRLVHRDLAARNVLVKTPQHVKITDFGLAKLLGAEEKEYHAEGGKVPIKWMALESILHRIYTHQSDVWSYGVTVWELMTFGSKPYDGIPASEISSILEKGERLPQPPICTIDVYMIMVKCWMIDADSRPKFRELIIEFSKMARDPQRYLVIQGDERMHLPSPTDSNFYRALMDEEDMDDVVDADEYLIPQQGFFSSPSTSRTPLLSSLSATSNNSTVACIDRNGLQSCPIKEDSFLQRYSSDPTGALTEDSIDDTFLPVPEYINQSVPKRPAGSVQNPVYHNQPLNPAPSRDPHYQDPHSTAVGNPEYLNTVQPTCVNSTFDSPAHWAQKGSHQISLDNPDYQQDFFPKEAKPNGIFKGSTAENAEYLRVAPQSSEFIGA
# Chain of Microtubule-associated serine/threonine-protein kinase 1 (Homo sapiens) (Q9Y2H9 whole entry, looked up): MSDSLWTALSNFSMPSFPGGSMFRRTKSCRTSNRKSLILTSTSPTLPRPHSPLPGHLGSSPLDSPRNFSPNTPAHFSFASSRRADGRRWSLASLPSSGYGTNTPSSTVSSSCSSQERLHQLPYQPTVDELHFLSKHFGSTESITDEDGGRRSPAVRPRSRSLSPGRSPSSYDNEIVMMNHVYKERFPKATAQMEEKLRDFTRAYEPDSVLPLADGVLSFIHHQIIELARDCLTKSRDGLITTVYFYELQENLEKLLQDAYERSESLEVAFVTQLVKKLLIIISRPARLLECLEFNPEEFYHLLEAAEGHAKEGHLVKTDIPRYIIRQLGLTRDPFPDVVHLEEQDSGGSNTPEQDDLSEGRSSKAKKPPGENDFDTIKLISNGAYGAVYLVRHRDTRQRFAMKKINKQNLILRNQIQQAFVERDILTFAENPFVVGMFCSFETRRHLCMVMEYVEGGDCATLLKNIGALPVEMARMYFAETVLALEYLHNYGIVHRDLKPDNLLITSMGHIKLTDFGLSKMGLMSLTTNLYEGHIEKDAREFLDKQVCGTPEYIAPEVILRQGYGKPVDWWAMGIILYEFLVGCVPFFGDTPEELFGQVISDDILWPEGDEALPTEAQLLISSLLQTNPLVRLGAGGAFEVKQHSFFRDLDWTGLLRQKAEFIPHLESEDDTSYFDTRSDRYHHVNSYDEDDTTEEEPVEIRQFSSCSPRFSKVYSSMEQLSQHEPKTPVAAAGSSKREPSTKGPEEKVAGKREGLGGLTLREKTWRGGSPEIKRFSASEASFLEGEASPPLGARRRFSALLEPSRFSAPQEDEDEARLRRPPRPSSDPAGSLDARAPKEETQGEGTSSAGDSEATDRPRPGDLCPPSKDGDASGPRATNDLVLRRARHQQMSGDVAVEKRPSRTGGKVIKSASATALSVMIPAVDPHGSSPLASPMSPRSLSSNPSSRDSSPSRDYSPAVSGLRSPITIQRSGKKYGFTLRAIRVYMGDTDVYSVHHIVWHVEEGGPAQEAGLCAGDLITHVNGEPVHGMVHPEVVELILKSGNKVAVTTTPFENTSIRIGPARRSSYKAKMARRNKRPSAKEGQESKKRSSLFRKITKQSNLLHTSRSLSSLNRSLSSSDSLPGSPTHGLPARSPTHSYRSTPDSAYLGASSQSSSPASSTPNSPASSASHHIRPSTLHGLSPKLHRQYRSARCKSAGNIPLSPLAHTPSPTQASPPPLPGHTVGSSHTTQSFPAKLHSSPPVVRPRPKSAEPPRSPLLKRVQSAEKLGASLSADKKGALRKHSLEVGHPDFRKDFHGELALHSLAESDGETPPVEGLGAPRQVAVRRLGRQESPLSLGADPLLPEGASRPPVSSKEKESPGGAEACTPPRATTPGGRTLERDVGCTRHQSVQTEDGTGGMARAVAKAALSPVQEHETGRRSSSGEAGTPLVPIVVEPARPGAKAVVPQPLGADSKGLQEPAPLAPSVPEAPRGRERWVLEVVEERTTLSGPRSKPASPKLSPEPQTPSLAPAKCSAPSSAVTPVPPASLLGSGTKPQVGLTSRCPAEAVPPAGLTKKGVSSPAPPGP
# Chain of Casein kinase I isoform epsilon (Homo sapiens) (P49674 whole entry, looked up, canonical isoform): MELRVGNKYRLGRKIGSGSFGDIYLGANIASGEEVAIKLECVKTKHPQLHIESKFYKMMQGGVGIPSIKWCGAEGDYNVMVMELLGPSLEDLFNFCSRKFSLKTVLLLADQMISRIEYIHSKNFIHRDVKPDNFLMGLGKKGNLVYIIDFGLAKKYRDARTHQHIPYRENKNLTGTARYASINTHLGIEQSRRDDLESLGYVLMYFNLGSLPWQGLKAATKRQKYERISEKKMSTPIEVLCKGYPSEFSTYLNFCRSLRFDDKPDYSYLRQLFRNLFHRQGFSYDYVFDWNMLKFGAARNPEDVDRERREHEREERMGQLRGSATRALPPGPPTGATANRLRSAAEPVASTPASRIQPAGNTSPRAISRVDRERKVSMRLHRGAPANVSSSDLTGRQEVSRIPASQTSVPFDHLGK
# Chain of Mitogen-activated protein kinase kinase kinase kinase 4 (O95819 2-1239 limits assumed): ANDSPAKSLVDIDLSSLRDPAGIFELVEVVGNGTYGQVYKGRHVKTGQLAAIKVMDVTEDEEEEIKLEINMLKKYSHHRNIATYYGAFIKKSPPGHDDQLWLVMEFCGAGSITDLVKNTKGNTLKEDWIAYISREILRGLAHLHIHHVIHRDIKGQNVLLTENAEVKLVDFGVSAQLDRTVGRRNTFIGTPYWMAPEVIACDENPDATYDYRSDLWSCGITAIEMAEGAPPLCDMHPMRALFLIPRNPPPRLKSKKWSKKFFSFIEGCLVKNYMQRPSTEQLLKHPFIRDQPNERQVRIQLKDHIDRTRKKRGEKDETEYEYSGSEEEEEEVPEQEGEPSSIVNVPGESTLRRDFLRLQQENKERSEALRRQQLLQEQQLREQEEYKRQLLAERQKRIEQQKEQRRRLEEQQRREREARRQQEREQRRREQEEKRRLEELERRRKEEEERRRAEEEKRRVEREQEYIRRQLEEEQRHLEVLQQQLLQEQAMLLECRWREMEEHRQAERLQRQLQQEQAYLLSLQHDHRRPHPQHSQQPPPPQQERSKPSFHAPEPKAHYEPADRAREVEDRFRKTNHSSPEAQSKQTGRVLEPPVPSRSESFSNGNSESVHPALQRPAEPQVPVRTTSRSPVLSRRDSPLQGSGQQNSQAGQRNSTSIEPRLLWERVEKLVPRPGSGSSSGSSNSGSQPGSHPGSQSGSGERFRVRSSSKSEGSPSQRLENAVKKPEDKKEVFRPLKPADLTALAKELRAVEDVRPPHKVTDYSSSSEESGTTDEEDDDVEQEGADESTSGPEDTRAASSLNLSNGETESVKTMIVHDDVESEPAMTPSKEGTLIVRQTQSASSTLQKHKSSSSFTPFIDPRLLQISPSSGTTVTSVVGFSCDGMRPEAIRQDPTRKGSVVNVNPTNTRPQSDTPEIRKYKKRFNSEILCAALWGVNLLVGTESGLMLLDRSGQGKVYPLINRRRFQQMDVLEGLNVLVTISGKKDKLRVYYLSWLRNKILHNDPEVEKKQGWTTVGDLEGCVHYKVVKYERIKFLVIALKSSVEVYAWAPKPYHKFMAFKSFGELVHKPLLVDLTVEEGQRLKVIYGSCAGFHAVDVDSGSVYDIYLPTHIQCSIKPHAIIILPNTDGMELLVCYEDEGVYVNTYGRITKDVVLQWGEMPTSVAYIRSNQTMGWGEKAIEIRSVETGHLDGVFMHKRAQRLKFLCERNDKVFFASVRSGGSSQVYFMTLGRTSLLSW
# Chain of Activin receptor type-1 (Homo sapiens) (Q04771 whole entry, canonical isoform): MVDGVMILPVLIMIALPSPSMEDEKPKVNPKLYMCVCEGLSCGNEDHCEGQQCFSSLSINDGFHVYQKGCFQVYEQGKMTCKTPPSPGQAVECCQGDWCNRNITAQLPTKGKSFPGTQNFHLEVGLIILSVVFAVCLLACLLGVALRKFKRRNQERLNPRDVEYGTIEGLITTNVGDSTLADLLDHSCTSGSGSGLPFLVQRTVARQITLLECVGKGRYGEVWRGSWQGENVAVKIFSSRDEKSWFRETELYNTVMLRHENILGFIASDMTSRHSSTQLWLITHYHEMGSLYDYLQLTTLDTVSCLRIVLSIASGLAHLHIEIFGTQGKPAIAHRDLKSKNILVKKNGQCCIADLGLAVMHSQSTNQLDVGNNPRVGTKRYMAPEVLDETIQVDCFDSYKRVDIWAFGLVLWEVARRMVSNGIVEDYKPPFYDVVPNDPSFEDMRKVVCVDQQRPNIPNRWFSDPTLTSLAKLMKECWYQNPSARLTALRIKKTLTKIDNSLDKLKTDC
smiles,measurement,setting,value
CCN1CCN(Cc2ccc(NC(=O)c3ccc(C)c(Oc4ccnc5[nH]ccc45)c3)cc2C(F)(F)F)CC1,inhibition,293-IL-1R,Dose-Dependent Effect
same,inhibition,[1],inactive
same,inhibition,[2],inactive
same,inhibition,[3],4.6%
same,inhibition,[4],inactive
same,inhibition,[5],-6.1%
CNc1cc(Oc2cc(C(=O)Nc3cc(N4CCN(C)CC4)cc(C(F)(F)F)c3)ccc2C)ncn1,inhibition,[6],0.3%
same,inhibition,[7],-4.1%
same,inhibition,[8],-8.6%
CCN1CCN(Cc2ccc(NC(=O)c3ccc(C)c(/C=C/c4cnc5[nH]ccc5c4OC)c3)cc2C(F)(F)F)CC1,inhibition,[9],1.4%
same,inhibition,[10],67%
same,inhibition,[11],18.5%
same,inhibition,[12],3.2%
same,inhibition,Ephrin type-A receptor 2,83.7%
same,inhibition,[13],-1.5%
